ChEMBL document CHEMBL5137043, “trans, trans-2-C-Aryl-3,4-dihydroxypyrrolidines as potent and selective β-glucosidase inhibitors: Pharmacological chaperones for Gaucher disease” (Eur J Med Chem, 2022)

Assays:
[1] = Inhibition of rice alpha-glucosidase assessed as reduction of p-nitrophenol release using p-nitrophenyl-glycoside as substrate by spectrophotometric analysis; set-up: species or system Oryza sativa
[2] = target: Sucrase-isomaltase, intestinal (Rattus norvegicus, UniProt P23739); assay: Inhibition of rat small intestinal sucrase assessed as reduction of p-nitrophenol release using p-nitrophenyl-glycoside as substrate by spectrophotometric analysis; assay type: tissue-based, Small intestine
Sucrase-isomaltase, intestinal, sequence (P23739 1-1013 limits assumed): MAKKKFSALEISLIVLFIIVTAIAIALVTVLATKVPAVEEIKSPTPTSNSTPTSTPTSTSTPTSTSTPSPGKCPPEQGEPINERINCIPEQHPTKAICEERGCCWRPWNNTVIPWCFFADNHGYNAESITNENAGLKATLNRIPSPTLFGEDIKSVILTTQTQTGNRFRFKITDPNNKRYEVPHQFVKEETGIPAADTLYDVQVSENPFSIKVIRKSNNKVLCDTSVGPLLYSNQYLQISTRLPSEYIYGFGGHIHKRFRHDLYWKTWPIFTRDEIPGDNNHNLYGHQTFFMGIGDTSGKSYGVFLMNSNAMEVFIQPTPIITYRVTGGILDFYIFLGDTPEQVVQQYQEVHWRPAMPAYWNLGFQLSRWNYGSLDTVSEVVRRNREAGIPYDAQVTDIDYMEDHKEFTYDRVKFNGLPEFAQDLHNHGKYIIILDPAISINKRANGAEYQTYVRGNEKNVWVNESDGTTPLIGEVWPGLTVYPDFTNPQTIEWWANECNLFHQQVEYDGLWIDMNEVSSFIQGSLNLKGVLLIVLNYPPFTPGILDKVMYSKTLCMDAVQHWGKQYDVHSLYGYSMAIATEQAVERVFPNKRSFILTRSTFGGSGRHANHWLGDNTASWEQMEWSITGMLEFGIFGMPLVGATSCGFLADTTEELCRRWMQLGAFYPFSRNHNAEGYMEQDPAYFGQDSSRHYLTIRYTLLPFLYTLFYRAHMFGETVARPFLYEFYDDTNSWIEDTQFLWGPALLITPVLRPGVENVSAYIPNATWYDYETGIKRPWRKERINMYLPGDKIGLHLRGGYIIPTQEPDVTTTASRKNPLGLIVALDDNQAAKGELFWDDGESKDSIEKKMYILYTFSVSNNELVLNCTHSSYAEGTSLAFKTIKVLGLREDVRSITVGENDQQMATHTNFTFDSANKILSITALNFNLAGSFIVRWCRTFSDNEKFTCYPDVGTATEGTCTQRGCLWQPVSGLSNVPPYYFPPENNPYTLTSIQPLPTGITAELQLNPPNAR
Sucrase-isomaltase, intestinal, sequence (P23739 1014-1841 limits assumed): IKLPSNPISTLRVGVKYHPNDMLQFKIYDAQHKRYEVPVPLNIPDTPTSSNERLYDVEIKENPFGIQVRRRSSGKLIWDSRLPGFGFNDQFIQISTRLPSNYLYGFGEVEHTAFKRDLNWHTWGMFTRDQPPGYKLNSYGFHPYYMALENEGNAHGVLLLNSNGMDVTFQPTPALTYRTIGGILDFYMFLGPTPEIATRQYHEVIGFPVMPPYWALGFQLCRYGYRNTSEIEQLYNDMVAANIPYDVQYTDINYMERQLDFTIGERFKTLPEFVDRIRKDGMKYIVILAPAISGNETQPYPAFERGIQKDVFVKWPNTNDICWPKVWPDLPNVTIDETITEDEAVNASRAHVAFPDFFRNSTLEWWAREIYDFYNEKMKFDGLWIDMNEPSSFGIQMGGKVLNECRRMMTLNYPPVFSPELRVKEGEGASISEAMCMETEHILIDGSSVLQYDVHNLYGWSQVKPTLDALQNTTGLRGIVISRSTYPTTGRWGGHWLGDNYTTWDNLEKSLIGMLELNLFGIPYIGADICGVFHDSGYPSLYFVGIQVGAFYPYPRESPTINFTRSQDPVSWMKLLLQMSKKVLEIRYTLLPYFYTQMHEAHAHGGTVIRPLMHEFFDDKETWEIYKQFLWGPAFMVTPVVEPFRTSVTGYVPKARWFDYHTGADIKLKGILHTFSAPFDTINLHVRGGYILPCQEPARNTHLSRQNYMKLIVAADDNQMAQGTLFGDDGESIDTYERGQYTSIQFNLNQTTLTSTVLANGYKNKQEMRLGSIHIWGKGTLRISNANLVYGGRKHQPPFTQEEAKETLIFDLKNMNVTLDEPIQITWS

[3] = Inhibition of human lysosomal beta-glucosidase assessed as reduction of p-nitrophenol release using p-nitrophenyl-glycoside as substrate by spectrophotometric analysis; assay type: subcellular, Lysosome
Saccharomyces cerevisiae = assay: Inhibition of yeast alpha-glucosidase assessed as reduction of p-nitrophenol release using p-nitrophenyl-glycoside as substrate at 1000 uM by spectrophotometric analysis
Oryza sativa = assay: Inhibition of rice alpha-glucosidase assessed as reduction of p-nitrophenol release using p-nitrophenyl-glycoside as substrate at 1000 uM by spectrophotometric analysis
[4] = Inhibition of almond beta-glucosidase assessed as reduction of p-nitrophenol release using p-nitrophenyl-glycoside as substrate by spectrophotometric analysis; set-up: species or system Prunus dulcis
Bos taurus [5] = organism: Bos taurus; assay: Inhibition of bovine liver beta-glucosidase assessed as reduction of p-nitrophenol release using p-nitrophenyl-glycoside as substrate at 1000 uM by spectrophotometric analysis
[6] = target: Alpha-galactosidase (Coffea arabica) (UniProt Q42656); assay: Inhibition of coffee beans alpha-galactosidase assessed as reduction of p-nitrophenol release using p-nitrophenyl-glycoside as substrate at 1000 uM by spectrophotometric analysis
Alpha-galactosidase (Coffea arabica), sequence (Q42656 16-378 limits assumed): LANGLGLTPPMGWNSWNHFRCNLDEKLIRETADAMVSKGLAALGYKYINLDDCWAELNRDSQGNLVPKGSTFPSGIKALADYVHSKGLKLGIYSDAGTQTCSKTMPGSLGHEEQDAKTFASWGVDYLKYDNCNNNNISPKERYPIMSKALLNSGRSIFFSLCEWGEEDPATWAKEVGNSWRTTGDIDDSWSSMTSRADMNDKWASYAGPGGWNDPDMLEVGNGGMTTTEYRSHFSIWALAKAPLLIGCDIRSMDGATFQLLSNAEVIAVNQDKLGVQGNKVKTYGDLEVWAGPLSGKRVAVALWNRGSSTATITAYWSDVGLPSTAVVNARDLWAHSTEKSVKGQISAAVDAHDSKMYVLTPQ

[7] = Inhibition of bovine liver beta-galactosidase assessed as reduction of p-nitrophenol release using p-nitrophenyl-glycoside as substrate by spectrophotometric analysis; set-up: species or system Bos taurus
[8] = target: T1, Alpha-mannosidase (Canavalia ensiformis) (UniProt C0HJB3); assay: Inhibition of jack bean alpha-mannosidase assessed as reduction of p-nitrophenol release using p-nitrophenyl-glycoside as substrate at 1000 uM by spectrophotometric analysis
T1 sequence (whole entry): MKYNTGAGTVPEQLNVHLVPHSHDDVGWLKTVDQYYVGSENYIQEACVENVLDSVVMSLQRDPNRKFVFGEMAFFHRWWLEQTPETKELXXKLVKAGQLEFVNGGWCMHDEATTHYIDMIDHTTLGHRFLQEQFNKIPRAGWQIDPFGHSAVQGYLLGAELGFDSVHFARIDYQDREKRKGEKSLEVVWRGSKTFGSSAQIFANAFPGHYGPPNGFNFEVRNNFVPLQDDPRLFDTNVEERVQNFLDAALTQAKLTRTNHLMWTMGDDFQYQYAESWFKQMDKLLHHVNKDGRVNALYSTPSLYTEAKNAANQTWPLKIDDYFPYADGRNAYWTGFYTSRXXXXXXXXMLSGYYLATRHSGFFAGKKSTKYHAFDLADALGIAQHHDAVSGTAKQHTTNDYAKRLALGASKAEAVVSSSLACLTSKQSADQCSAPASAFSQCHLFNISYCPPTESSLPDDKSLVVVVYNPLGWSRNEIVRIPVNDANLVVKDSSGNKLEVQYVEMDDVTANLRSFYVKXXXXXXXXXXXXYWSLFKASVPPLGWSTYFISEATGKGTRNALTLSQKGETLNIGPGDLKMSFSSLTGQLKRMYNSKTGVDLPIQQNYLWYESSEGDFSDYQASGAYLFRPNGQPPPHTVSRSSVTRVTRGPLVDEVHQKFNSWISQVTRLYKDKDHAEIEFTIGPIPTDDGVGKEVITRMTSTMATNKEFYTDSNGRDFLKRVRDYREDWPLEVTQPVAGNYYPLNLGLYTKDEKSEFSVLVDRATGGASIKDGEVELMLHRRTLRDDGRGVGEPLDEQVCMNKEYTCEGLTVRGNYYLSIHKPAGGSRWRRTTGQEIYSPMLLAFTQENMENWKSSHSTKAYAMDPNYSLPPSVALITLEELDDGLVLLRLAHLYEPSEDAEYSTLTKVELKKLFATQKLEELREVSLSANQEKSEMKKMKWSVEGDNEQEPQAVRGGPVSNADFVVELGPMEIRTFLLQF

Helix pomatia = assay: Inhibition of snail beta-mannosidase assessed as reduction of p-nitrophenol release using p-nitrophenyl-glycoside as substrate at 1000 uM by spectrophotometric analysis
[9] = target: T2, Tissue alpha-L-fucosidase (Bos taurus) (UniProt Q2KIM0); assay: Inhibition of bovine kidney alpha-L-fucosidase assessed as reduction of p-nitrophenol release using p-nitrophenyl-glycoside as substrate at 1000 uM by spectrophotometric analysis; assay type: tissue-based
T2 sequence (whole entry): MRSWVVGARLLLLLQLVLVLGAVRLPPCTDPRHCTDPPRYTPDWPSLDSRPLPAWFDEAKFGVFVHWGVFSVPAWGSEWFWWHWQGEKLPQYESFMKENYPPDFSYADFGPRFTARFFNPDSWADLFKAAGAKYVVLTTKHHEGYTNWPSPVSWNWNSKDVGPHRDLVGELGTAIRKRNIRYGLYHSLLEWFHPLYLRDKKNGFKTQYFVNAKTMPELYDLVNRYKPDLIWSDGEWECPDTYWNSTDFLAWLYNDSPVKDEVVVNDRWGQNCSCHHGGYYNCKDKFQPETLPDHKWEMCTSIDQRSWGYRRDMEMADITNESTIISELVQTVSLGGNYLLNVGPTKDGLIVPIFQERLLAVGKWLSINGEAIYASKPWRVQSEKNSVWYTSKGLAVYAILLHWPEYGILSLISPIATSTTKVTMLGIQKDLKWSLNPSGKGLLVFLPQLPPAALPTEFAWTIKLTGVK

Sus scrofa = organism: Sus scrofa; assay: Inhibition of porcine kidney alpha-trehalase assessed as reduction of p-nitrophenol release using p-nitrophenyl-glycoside as substrate at 1000 uM by spectrophotometric analysis; assay type: tissue-based
Aspergillus niger = assay: Inhibition of Aspergillus niger amyloglucosidase assessed as reduction of p-nitrophenol release using p-nitrophenyl-glycoside as substrate at 1000 uM by spectrophotometric analysis
Penicillium decumbens = assay: Inhibition of Penicillium decumbens alpha-L-rhamnosidase assessed as reduction of p-nitrophenol release using p-nitrophenyl-glycoside as substrate at 1000 uM by spectrophotometric analysis
[10] = Inhibition of Escherichia coli beta-glucuronidase assessed as reduction of p-nitrophenol release using p-nitrophenyl-glycoside as substrate by spectrophotometric analysis
Bos taurus [11] = organism: Bos taurus; assay: Inhibition of bovine liver beta-glucuronidase assessed as reduction of p-nitrophenol release using p-nitrophenyl-glycoside as substrate at 1000 uM by spectrophotometric analysis
[12] = target: Lysosomal alpha-glucosidase (Homo sapiens) (UniProt P10253); assay: Inhibition of human lysosomal alpha-glucosidase assessed as reduction of p-nitrophenol release using p-nitrophenyl-glycoside as substrate at 1000 uM by spectrophotometric analysis; conditions: Lysosome
[13] = target: T3, Lysosomal acid glucosylceramidase (Homo sapiens, UniProt P04062); assay: Inhibition of human GCase assessed as reduction of 4-methylumbelliferone liberation using 4-methylumbelliferyl-beta-glucopyranoside as substrate preincubated with enzyme for 45 mins followed by substrate addition and measured after 30 mins by fluorescence spectrophotometry
T3 sequence (P04062 whole entry): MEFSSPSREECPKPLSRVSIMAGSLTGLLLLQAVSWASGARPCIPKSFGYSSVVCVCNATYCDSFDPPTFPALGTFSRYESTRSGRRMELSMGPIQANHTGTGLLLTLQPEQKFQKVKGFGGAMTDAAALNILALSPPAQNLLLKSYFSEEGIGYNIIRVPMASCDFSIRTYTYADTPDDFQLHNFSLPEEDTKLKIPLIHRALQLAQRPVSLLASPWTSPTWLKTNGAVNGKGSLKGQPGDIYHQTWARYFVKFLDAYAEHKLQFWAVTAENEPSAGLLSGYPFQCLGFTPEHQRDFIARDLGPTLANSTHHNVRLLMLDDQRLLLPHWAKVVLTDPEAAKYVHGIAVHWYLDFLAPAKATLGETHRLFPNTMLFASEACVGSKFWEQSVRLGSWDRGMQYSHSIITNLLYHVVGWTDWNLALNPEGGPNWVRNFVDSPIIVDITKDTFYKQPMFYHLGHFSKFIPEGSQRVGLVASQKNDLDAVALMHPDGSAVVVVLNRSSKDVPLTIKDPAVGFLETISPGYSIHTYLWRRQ

[14] = target: Lysosomal alpha-glucosidase (Rattus norvegicus) (UniProt Q6P7A9); assay: Inhibition of rat small intestinal maltase assessed as reduction of D-glucose release using maltose as substrate at 1000 uM by colorimetric analysis; assay type: tissue-based; conditions: Small intestine
Lysosomal alpha-glucosidase (Rattus norvegicus), sequence (Q6P7A9 whole entry): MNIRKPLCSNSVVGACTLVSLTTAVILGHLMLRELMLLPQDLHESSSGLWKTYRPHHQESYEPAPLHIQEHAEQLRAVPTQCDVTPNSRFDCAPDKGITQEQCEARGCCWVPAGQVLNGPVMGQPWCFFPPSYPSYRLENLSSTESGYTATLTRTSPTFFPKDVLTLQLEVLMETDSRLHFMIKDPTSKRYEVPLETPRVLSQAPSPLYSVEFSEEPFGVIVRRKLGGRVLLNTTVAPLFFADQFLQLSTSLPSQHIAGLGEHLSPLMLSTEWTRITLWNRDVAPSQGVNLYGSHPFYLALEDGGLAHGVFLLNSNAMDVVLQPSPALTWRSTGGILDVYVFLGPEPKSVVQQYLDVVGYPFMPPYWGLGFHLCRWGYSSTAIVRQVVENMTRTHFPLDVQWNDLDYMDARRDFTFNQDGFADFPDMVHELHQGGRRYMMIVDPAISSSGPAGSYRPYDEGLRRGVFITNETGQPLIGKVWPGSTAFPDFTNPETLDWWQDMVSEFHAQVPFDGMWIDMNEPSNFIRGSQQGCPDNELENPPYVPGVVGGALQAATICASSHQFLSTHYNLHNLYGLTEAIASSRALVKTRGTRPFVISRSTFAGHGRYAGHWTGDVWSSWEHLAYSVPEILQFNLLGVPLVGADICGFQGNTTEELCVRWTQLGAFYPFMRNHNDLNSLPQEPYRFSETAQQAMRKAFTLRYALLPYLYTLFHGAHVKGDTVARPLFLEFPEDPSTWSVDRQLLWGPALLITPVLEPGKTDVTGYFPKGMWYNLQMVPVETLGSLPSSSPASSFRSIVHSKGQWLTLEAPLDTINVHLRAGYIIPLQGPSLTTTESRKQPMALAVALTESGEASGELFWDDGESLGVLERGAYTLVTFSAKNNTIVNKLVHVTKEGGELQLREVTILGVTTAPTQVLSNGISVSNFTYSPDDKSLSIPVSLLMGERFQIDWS

Prunus dulcis = assay: Inhibition of almond beta-glucosidase assessed as reduction of p-nitrophenol release using p-nitrophenyl-glycoside as substrate at 1000 uM by spectrophotometric analysis
Bos taurus [15] = organism: Bos taurus; assay: Inhibition of bovine liver beta-galactosidase assessed as reduction of p-nitrophenol release using p-nitrophenyl-glycoside as substrate at 1000 uM by spectrophotometric analysis
Escherichia coli = assay: Inhibition of Escherichia coli beta-glucuronidase assessed as reduction of p-nitrophenol release using p-nitrophenyl-glycoside as substrate at 1000 uM by spectrophotometric analysis
[16] = target: T3, Lysosomal acid glucosylceramidase; assay: Inhibition of human GCase

| Structure (SMILES) | IC50 [2] [µM] | IC50 [3] [µM] | inhibition (Saccharomyces cerevisiae) [%] | inhibition (Bos taurus [5]) [%] | inhibition [6] [%] | inhibition [8] [%] | inhibition (Helix pomatia) [%] | inhibition [9] [%] | inhibition (Sus scrofa) [%] | inhibition (Aspergillus niger) [%] | inhibition (Penicillium decumbens) [%] | inhibition (Bos taurus [11]) [%] | inhibition [12] [%] | IC50 [13] [µM] | further results |
| --- | --- | --- | --- | --- | --- | --- | --- | --- | --- | --- | --- | --- | --- | --- | --- |
| O[C@@H]1[C@@H](O)CN[C@H]1c1ccccc1 [listing 1 of 3 here] | 603 | 22 |  |  |  |  |  |  |  |  |  |  |  |  | IC50 [1]: 560 µM |
| O[C@H]1[C@H](O)CN[C@@H]1CCCc1ccccc1 | 264 | 3.1 | 28.5 | 42.1 | 0 | 20.6 | 5.6 | 6.2 | 5.3 | 0 | 8.3 | 0.3 | 26.5 |  | inhibition (Oryza sativa): 38%; IC50 [4]: 565 µM; IC50 [7]: 578 µM; IC50 [10]: 910 µM |
| CCCCCCCCCC[C@H]1N[C@H](CO)[C@@H](O)[C@@H]1O |  |  |  |  |  |  |  |  |  |  |  |  |  | 1.9 |  |
| CCCCC[C@H]1N[C@H](CO)[C@@H](O)[C@@H]1O |  |  |  |  |  |  |  |  |  |  |  |  |  | 34 |  |
| O[C@@H]1[C@@H](O)CN[C@H]1c1ccc(F)cc1 | 117 | 13 | 8.6 | 14.8 | 16.6 | 1.2 | 2.2 | 0 | 6.5 | 0 | 8.3 | 0 | 30 |  | inhibition (Oryza sativa): 41.8%; inhibition [14]: 25.6%; inhibition (Prunus dulcis): 12.6%; inhibition (Bos taurus [15]): 25.2%; inhibition (Escherichia coli): 26.8% |
| CCCCCCCC[C@H]1N[C@H](CO)[C@@H](O)[C@@H]1O |  |  |  |  |  |  |  |  |  |  |  |  |  | 6.2 |  |
| CCCCCCCCCC1NC[C@@H](O)[C@H](O)[C@H]1O (stereo partly drawn) |  |  |  |  |  |  |  |  |  |  |  |  |  |  | IC50 [16]: 0.0068 µM |
| Cc1ccc([C@H]2NC[C@@H](O)[C@@H]2O)cc1 | 1210 | 3.4 | 11 | 38.2 | 0 | 0 | 1.9 | 4.2 | 0 | 0 | 2.8 | 0.3 | 15 |  | inhibition (Oryza sativa): 22.8%; inhibition [14]: 24.6%; inhibition (Prunus dulcis): 13.5%; IC50 [7]: 602 µM; IC50 [10]: 269 µM |
| CCCCCCC[C@H]1N[C@H](CO)[C@@H](O)[C@@H]1O |  |  |  |  |  |  |  |  |  |  |  |  |  | 38 |  |
| CCCCCCCCCCC[C@H]1N[C@H](CO)[C@@H](O)[C@@H]1O |  |  |  |  |  |  |  |  |  |  |  |  |  | 2.3 |  |
| O[C@H]1[C@H](O)CN[C@@H]1c1ccc(F)cc1 | 339 | 6.2 | 5.6 | 29 | 2 | 0.8 | 4.8 | 0 | 1.6 | 0 | 0 | 2 | 13.4 |  | inhibition (Oryza sativa): 47.3%; inhibition [14]: 14%; inhibition (Prunus dulcis): 15%; inhibition (Bos taurus [15]): 39.9%; inhibition (Escherichia coli): 43.4% |
| O[C@@H]1[C@@H](O)CN[C@H]1c1ccccc1 [listing 2 of 3 here] |  |  | 0.3 | 31.7 | 2.6 | 2 | 1.1 | 0 | 5.7 | 0 | 1.8 | 15 | 24.6 |  | inhibition [14]: 16.5%; inhibition (Prunus dulcis): 3.4%; inhibition (Bos taurus [15]): 49%; inhibition (Escherichia coli): 8.5% |
| Cc1ccc([C@@H]2NC[C@H](O)[C@H]2O)cc1 | 389 | 8.7 | 5.3 | 46.4 | 0 | 0.4 | 2.2 | 0 | 17.6 | 2.3 | 2.3 | 0.3 | 4.8 |  | inhibition (Oryza sativa): 15.8%; inhibition [14]: 23.1%; inhibition (Prunus dulcis): 11%; IC50 [7]: 470 µM; IC50 [10]: 610 µM |
| CCCCCCO[C@H]1CNC[C@@H](O)[C@@H]1O |  |  |  |  |  |  |  |  |  |  |  |  |  |  | IC50 [16]: 0.009 µM |
| CCCCCC[C@H]1N[C@H](CO)[C@@H](O)[C@@H]1O |  |  |  |  |  |  |  |  |  |  |  |  |  | 30 |  |
| CCCCCCCCC[C@H]1N[C@H](CO)[C@@H](O)[C@@H]1O |  |  |  |  |  |  |  |  |  |  |  |  |  | 3.3 |  |
| O[C@@H]1[C@@H](O)CN[C@H]1c1ccccc1 [listing 3 of 3 here] |  |  |  |  |  |  |  |  |  |  |  |  |  |  | IC50 [16]: 26.5 µM |
| CCCCCCCCCCCCC[C@H]1N[C@H](CO)[C@@H](O)[C@@H]1O |  |  |  |  |  |  |  |  |  |  |  |  |  | 0.77 |  |
